From patent US20190381127A1, “COMBINATION THERAPY WITH A6, CHEMOTHERAPEUTIC AGENTS, RADIATION THERAPY, OR A COMBINATION THEREOF FOR THE TREATMENT OF CANCER” (Splash Pharmaceuticals, Inc., priority 2016, published 2019)

How the values were obtained:
[1] = test system: persistent or recurrent epithelial ovarian, fallopian tube, or primary peritoneal carcinoma; experiment: Phase 2 trial, persistent or recurrent ovarian cancer
Experimental: Persistent or Recurrent Ovarian Cancer: A Phase 2 trial was conducted in patients with persistent or recurrent epithelial ovarian, fallopian tube, or primary peritoneal carcinoma to evaluate A6 in a patient population with a disease burden greater than that presented in the previously described MOR trial. Patients had received one prior platinum-based chemotherapeutic regimen and were allowed to have received one additional cytotoxic regimen for the management of recurrent or persistent disease. Patients received a 150 mg twice daily subcutaneous dose of A6 and continued on treatment until disease progression or unacceptable toxicity. Response criteria were as defined by RECIST. Primary measures of clinical efficacy were objective tumor response and PFS at 6 months compared to a historical Gynecologic Oncology Group (GOG) dataset based on a similar population of patients.

[2] = test system: ZAP-70pos B-cell lymphocytes isolated from individual patients; experiment: CLL xenograft model; type: in vivo, immune-deficient mice; conditions: vs vehicle control
[3] = test system: human PC-3M-LN4 prostate cancer cells; experiment: Orthotopic prostate cancer metastasis model; type: in vivo, BALB/c (nu/nu) mice
Experimental: Prostate: A model of prostate cancer was used to evaluate the antimetastatic effect of A6 in mice. Metastases to lymph nodes were measured following the orthotopic injection of human PC-3M-LN4 prostate cancer cells into the prostates of BALB/c (nu/nu) mice.

breast cancer = experiment: Compassionate use, breast cancer patient; type: in vivo, human; conditions: A6 150 mg/day for 9 years, after Taxol 268 mg daily for 2 weeks
Experimental: A6 was administered in combination with paclitaxel as a compassionate use.

2008 cells = experiment: CCK-8 cytotoxicity, A6 plus DDP; type: cell-based, human; conditions: A6 1, 10 or 100 μM 1 h, then 1 h A6 plus DDP; 10% FBS
Experimental: (§1) Conditions: Drugs: DDP (3.33 mM stock) and A6 (109.8 mM stock); Drug exposure time: 1 hour ; Cell line: 2008 and its DDP-resistant subline 2008/C31*5.25; Media: RPMI 1640 plus 10% FBS containing 1 mM penicillin/streptomycin; Cytotoxicity Assays: CCK-8 (Cell Counting Kit 8—Dojindo Molecular Technologies).
(§2) Tissue culture plates containing 96-well plates were seeded with 3000 cells in 100 μl of media per well. The wells on rows A-D were seeded with 2008 cells, while the wells on rows E-H were seeded with 2008/C13*5.25 cells. The cells were allowed to attach overnight in a 37° C. in 5% CO2 incubator. Approximately 24 h later medium was removed by aspiration and the cells were exposed to 0, 1, 10 or 100 μM A6 peptide in 100 μl. After 1 h, increasing concentrations of DDP were added to triplicate wells in 100 μl medium. Following a 1 h exposure to the combination of A6 and DDP, the drugs were removed by aspiration. The cells were then allowed to grow for 96 h following which the plates were assayed for relative cell growth with the CCK-8 assay.
(§3) CCK-8 assay. Five μl of CCK-8 stain was added to each well and the plate was incubated at 37° C. incubator for 4 h. The plate was read with a microplate reader at a wavelength of 450 nm.
(§4) The assay was performed using triplicate wells for each DDP concentration. […]

[4] = test system: human breast and ovarian cancer cell lines; experiment: Boyden chamber chemotaxis; type: cell-based; conditions: responsive cell lines; read-out: IC50 for the inhibition of chemotaxis
Description: A6 had no effect on the migration of CD44-negative A2780 cells. A6 was also shown to interfere with the binding of only one (DF1485) of the four anti-CD44 antibodies tested.

[5] = test system: MDA-MB-231 human mammary carcinoma xenografts; experiment: Mammary carcinoma xenograft model; parameters: species or system BALB/c (nu/nu) mice; conditions: mouse, in vivo
Experimental: (§5) Mammary: The effects of A6 in mammary tumor and metastasis models were investigated. […] The effect of A6 in Fisher rats inoculated with Mat B-111 syngeneic mammary carcinoma cells was evaluated.

U87MG human glioma cells = experiment: Subcutaneous glioma xenograft; type: in vivo, BALB/c (nu/nu) mice
Experimental: Glioblastoma: In animal models of glioblastoma, U87MG human glioma cells were implanted subcutaneously or intracranially in BALB/c (nu/nu) mice and the animals were divided into different treatment groups. […] In this study the effects of cisplatin were also examined.

[6] = test system: Mat B-111 syngeneic mammary carcinoma cells; experiment: Syngeneic mammary carcinoma model; parameters: species or system Fisher rats; conditions: rat, in vivo
Experimental: as §5

B16-F10 cells = experiment: Inhibition of chemotaxis; type: cell-based; conditions: read-out: IC50 for A6 inhibition of chemotaxis
[7] = test system: bovine retinal microvascular endothelial cells; experiment: Retinal endothelial cell VE-cadherin / MMP study; type: cell-based
A2780 cells = experiment: CCK-8 cytotoxicity, A6 plus DDP; type: cell-based, human; conditions: A6 1, 10 or 100 μM 1 h, then 1 h A6 plus DDP; 10% FBS
Experimental: Study Conditions. Drugs: DDP (3.33 mM stock) and A6 (109.8 mM stock); Drug exposure time: 1 hour; Cell line: A2780 and its DDP-resistant subline A2780/CP; Media: RPMI 1640 plus 10% FBS containing 1 mM penicillin/streptomycin; Cytotoxicity Assays: CCK-8 (Cell Counting Kit 8—Dojindo Molecular Technologies).
Tissue culture plates containing 96-well plates were seeded with 4000 cells in 100 μl of media per well. The wells on rows A-D were seeded with A2780 cells, while the wells on rows E-H were seeded with A2780/CP cells. The cells were allowed to attach overnight in a 37° C. in 5% CO2 incubator. Approximately 24 h later medium was removed by aspiration and the cells were exposed to 0, 1, 10 or 100 μM A6 peptide in 100 μl. After 1 h, increasing concentrations of DDP were added to triplicate wells in 100 μl medium. Following a 1 h exposure to the combination of A6 and DDP, the drugs were removed by aspiration. The cells were then allowed to grow for 96 h following which the plates were assayed for relative cell growth with the CCK-8 assay.
as §3

CD44 [8] = target: T1, CD44 (Homo sapiens, UniProt P16070); experiment: Cross-linking, immunoprecipitation and immunoblotting of SKOV3 lysates; type: binding; conditions: SKOV3 cells bound and cross-linked to A6
Experimental: Human ovarian SKOV3 cells were bound and cross-linked to A6. […] To determine if this binding influenced CD44-mediated activity, and to determine if a functional relationship existed between A6 and CD44, intracellular signaling studies were conducted.

2008/C13*5.25 cells = experiment: CCK-8 cytotoxicity, A6 plus DDP; type: cell-based, human; conditions: A6 1, 10 or 100 μM 1 h, then 1 h A6 plus DDP; 10% FBS
Experimental: as §1, §2, §3, §4

CD44 [9] = target: T1, CD44; experiment: Perturbation of anti-CD44 antibody binding to SKOV3 cells
[10] = test system: choroidal neovascularization; experiment: Laser-induced choroidal neovascularization (CNV); type: in vivo, rat; conditions: subcutaneous injections; compared to non-treated controls
[11] = test system: retinal microvascular endothelial cell invasion; experiment: HGF-induced retinal endothelial cell invasion; type: cell-based
Description: The effect of A6 on HGF and its receptor, c-Met, in retinal angiogenesis has been examined.

[12] = test system: HEY/C2 (DDP resistant) cells; experiment: CCK-8 cytotoxicity of DDP/PTX with or without A6; type: cell-based; conditions: 100 μM A6; 72 hours; 10% FBS
Experimental: The cells were plated in 96-well plates as described and incubated overnight. […] The CCK-8 assay described herein was performed to access cytotoxicity of DDP/PTX.

IGROV-1 cells = experiment: CCK-8 cytotoxicity, A6 plus DDP; type: cell-based, human; conditions: A6 1, 10 or 100 μM 1 h, then 1 h A6 plus DDP
Experimental: Drugs: DDP (3.33 mM stock) and A6 (109.8 mM stock); Drug exposure time: 1 hour; Cell line: IGROV-1 and its DDP-resistant subline IGROV-1/CP; Media: RPMI 1640 plus 10% FBS containing 1 mM penicillin/streptomycin; Cytotoxicity Assays: CCK-8 (Cell Counting Kit 8—Dojindo Molecular Technologies).
Tissue culture plates containing 96-well plates were seeded with 4000 cells in 100 μl of media per well. The wells on rows A-D were seeded with IGROV-1 cells, while the wells on rows E-H were seeded with IGROV-1/CP cells. The cells were allowed to attach overnight in a 37° C. in 5% CO2 incubator. Approximately 24 h later medium was removed by aspiration and the cells were exposed to 0, 1, 10 or 100 μM A6 peptide in 100 μl. After 1 h, increasing concentrations of DDP were added to triplicate wells in 100 pa medium. Following a 1 h exposure to the combination of A6 and DDP, the drugs were removed by aspiration. The cells were then allowed to grow for 96 h following which the plates were assayed for relative cell growth with the CCK-8 assay.
CCK-8 assay. Five pi of CCK-8 stain was added to each well and the plate was incubated at 37° C. incubator for 4 h. The plate was read with a microplate reader at a wavelength of 450 nm.
as §4

[13] = test system: advanced gynecologic cancer; experiment: Phase 1b trial in advanced gynecologic cancer
Experimental: Advanced Gynecologic Cancer: A Phase 1b trial, was conducted in women with advanced gynecologic cancer. […] The study used a sequential dose-escalation design, with the lowest-dose group (4 patients) receiving A6 for cycles of 14 days “on” followed by 14 days “off”, a regimen not expected to produce any therapeutic effect. […] Patients continued treatment until disease progression or unacceptable toxicity. Response was evaluated as defined by RECIST and the Gynecologic Cancer Intergroup (GCIG) CA-125 response criteria.

IGROV-1/CP cells = experiment: CCK-8 cytotoxicity, A6 plus DDP; type: cell-based, human; conditions: A6 1, 10 or 100 μM 1 h, then 1 h A6 plus DDP
Experimental: Study Conditions. Drugs: […] Drug exposure time: 1 hour; Cell line: IGROV-1 and its DDP-resistant subline IGROV-1/CP; Media: RPMI 1640 plus 10% FBS containing 1 mM penicillin/streptomycin; Cytotoxicity Assays: CCK-8 (Cell Counting Kit 8—Dojindo Molecular Technologies). Tissue culture plates containing 96-well plates were seeded with 4000 cells in 100 μl of media per well. The wells on rows A-D were seeded with IGROV-1 cells, while the wells on rows E-H were seeded with IGROV-1/CP cells. […] After 1 h, increasing concentrations of DDP were added to triplicate wells in […] medium. […] The cells were then allowed to grow for 96 h following which the plates were assayed for relative cell growth with the CCK-8 assay. CCK-8 assay. […] of CCK-8 stain was added to each well and the plate was incubated at 37° C. incubator for 4 h. The plate was read with a microplate reader at a wavelength of 450 nm. (See FIGS. 7A-7D and FIG. 8). The assay was performed using triplicate wells for each DDP concentration. The data in the tables below is the optical density in the well which is a function of the number of live cells remaining at the end of the 96 h growth period.

retina of diabetic rats = experiment: Streptozotocin diabetic retinopathy model; parameters: species or system Brown Norway rats; conditions: rat, in vivo
[14] = 150 mg twice daily subcutaneous

T1 sequence (P16070 21-742): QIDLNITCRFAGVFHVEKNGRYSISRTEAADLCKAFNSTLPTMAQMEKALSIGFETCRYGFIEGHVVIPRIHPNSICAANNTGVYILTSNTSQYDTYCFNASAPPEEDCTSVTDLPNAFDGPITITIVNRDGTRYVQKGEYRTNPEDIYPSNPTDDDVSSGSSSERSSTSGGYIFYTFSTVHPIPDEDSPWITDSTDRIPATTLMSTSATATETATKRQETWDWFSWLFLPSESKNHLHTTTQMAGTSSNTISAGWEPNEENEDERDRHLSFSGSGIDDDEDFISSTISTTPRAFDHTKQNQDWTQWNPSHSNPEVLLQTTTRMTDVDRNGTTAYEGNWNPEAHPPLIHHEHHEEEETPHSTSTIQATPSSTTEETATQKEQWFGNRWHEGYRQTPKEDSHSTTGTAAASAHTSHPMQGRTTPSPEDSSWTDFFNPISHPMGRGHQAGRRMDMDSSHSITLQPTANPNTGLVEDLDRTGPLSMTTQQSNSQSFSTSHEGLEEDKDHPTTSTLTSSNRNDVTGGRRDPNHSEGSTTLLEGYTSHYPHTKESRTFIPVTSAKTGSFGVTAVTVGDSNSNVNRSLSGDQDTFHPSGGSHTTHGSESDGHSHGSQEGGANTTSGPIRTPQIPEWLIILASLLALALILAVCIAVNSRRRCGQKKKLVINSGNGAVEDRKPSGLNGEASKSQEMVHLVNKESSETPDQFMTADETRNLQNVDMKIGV

Substance: Ac-KPSSPPEE-NH2 [A6, Ac-KPSSPPEE-NH2]
- evaluable patients achieving stable disease [1, 14]: 36%
- patients progression free for at least 6 months [1, 14]: 6.5%
- objective tumor response ([1]; 150 mg twice daily subcutaneous, 31 eligible patients): no responses were observed
- tolerability ([1]; in vivo): well tolerated
- reduction in CLL burden [2]: up to 90%
- percentage of mice with lymph node metastases ([3]; more than 70% in the control group): ≥ 22%
- reduction of lymph node volume ([3]; mouse, in vivo): ≤ 70%
- clinical outcome (breast cancer): complete remission
- modulation of sensitivity to DDP (2008 cells): failed to modulate the sensitivity
- IC50 [4]: 10 to 100 nM
- metastasis [5]: An inhibition of metastasis was noted
- time to progression following discontinuation of treatment (U87MG human glioma cells): prolonged the time to progression
- lymph node metastasis [6]: markedly suppressed
- IC50 (B16-F10 cells): 29 nM
- MMP dependent VE-cadherin degradation and loss of permeability [7]: inhibit MMP dependent VE-cadherin degradation and the loss of permeability
- secretion and activation of MMP-2 and MMP-9 [7]: prevented the secretion and activation
- modulation of sensitivity to DDP (A2780 cells): failed to modulate the sensitivity
- direct interaction with CD44 (CD44 [8]): binding to CD44
- modulation of sensitivity to DDP (2008/C13*5.25 cells): failed to modulate the sensitivity
- binding of the anti-CD44 antibody DF1485 to CD44-expressing SKOV3 cells (CD44 [9]; antibody DF1485): partial inhibition
- binding of the anti-CD44 antibody IM7 (CD44 [9]; antibody IM7): did not interfere
- reduction in CNV [10]: 70%
- HGF-induced retinal endothelial cell invasion [11]: reduced to control levels
- sensitivity of cells to cisplatin [12]: did not affect sensitivity
- sensitivity of cells to paclitaxel [12]: did not affect sensitivity
- modulation of sensitivity to DDP (IGROV-1 cells): failed to modulate the sensitivity
- median time to progression (TTP) ([13]; continuous treatment): 78 days
- safety outcome ([13]; in vivo): no specific toxicity profile
- median time to progression (TTP) ([13]; intermittent therapy (14 days on, 14 days off)): 44 days
- patients with disease stabilization ([13]; patients dosed continuously): Greater than 40%
- modulation of sensitivity to DDP (IGROV-1/CP cells): failed to modulate the sensitivity
- increase in microvascular permeability in the retina (retina of diabetic rats): inhibits the increase
- loss of vascular endothelial (VE)-cadherin (retina of diabetic rats): prevents the loss
